Experimental data: patent US8603531B2, “Nanometer-sized prodrugs of NSAIDs” (Cedars-Sinai Medical Center, priority 2008, dated 2013)

What was measured:
[1] = Hydrodynamic size and size distribution of nanoprodrugs by dynamic light scattering; assay type: physicochemical
Protocol: Briefly, 25 mg of the compounds were dissolved in acetone (5 ml) containing polysorbate 80 (0.1% w/v). […] Following 15 min of magnetic stirring, the acetone was removed under reduced pressure at room temperature.
The hydrodynamic size measurement and size distribution of the nanoprodrugs were performed by the dynamic light scattering (DLS) using a Coulter N4-Plus Submicron Particle Sizer (Coulter Corporation, Miami, Fla., USA). The nanoprodrugs were diluted in deionized water and the analysis was performed at a scattering angle of 90° and at a temperature of 25° C. Three separate preparations were analyzed for each nanoprodrug. For each preparation mean diameter and mean polydispersity index (P.I.) of three determinations were calculated. The mean diameter±standard deviation (S.D.) and P.I.±S.D. were calculated from the three mean diameters and mean P.I.'s of the three separate preparations.

esterase [2] = test: Effect of nanoprodrug oxidation on the rate of enzymatic hydrolysis; assay type: in vitro ADME, porcine; conditions: determined immediately after addition of esterase 2 U/ml; HOCl 500 μM 2 min
Protocol: In order to evaluate the effect of prodrug oxidation on the rate of enzymatic hydrolysis, the initial hydrolysis rate of NSAIDs from the oxidized and non-oxidized nanoprodrugs was determined. The nanoprodrugs prepared from ALA-TEG-Ibu, ALA-TEG-Npx and ALA-TEG-Ind (250 μM in PBS, pH 7.4) were incubated in the absence and presence of HOCl (500 μM) for 2 min. Esterase (2 U/ml) was added and mixed by pipetting up and down. The reaction mixture was centrifuged immediately after addition of esterase and the supernatant was quickly transferred into a new tube and incubated further to complete hydrolysis. The hydrolyzed NSAIDs in the supernatant were quantified using RP-HPLC as described above. Error bar represents±S.D. calculated from triplicate determinations.
To evaluate the sequence of hydrolysis after oxidation, the nanoprodrugs were incubated in presence of HOCl (500 μM) for 2 min and esterase (2 U/ml) was added. The reaction mixture was mixed by pipetting up and down and immediately centrifuged for 10 min at 20,000×g. The supernatant was analyzed using RP-HPLC as described above.

esterase [3] = test: Recovery of NSAIDs from oxidized nanoprodrugs (esterase hydrolysis); assay type: in vitro ADME, porcine; conditions: 250 μM, HOCl 500 μM 2 min, esterase 2 U/ml, overnight 37° C.
Protocol: The recovery yield of NSAIDs was determined for oxidized and non-oxidized nanoprodrugs. The nanoprodrugs prepared from ALA-TEG-Ibu, ALA-TEG-Npx and ALA-TEG-Ind (250 μM in PBS, pH 7.4) were incubated in the presence and absence of HOCl (500 μM) for 2 min. Esterase (2 U/ml) was added and mixed by pipetting up and down. In order to determine the total amount of available NSAIDs from the oxidized and non-oxidized nanoprodrugs, the hydrolysis was carried out overnight at 37° C. The reaction mixture was centrifuged for 10 min at 20,000×g and the hydrolyzed NSAIDs in the supernatant were quantified using RP-HPLC. Error bar represents±S.D. calculated from triplicate determinations.

Esterase (porcine liver) = test: Enzymatic destabilization / hydrolysis of nanoprodrugs by esterase; assay type: in vitro ADME; conditions: esterase 5 U/ml; for Parent drugs hydrolyzed / released from the nanoprodrugs after 1 h incubation / Concentration of the released drugs / Drug release: nanoprodrug 500 μM; for Concentration of the released drugs / Drug release: 60 min, room temperature, PBS pH 7.4; for Concentrations of the released drugs after 12 h incubation: compared with ALA-TEG-Npx and ALA-TEG-Ibu after 1 h
Protocol: Esterase (porcine liver, Sigma, code E3019) was added to the final concentration of 5 U/ml. For the nanoprodrugs from the three bifunctional prodrugs, ALA-TEG-Ibu, ALA-TEG-Npx and ALA-TEG-Ind, the reduction in turbidity was monitored using ultraviolet/visible spectrometer (Bio-Rad SmartSpec™ 3000) for 60 min at room temperature with a wavelength λ=500 nm and 1 min acquisition interval. For the nanoprodrugs from the three dimeric prodrugs, Ibu2TEG, Npx2TEG and Ind2TEG, the samples were taken during the incubation for 12 h at room temperature with appropriate time interval and the reduction in turbidity was measured.
To determine the amount of enzymatically hydrolyzed NSAIDs, samples were centrifuged for 10 min at 20,000×g and the supernatants were analyzed by RP-HPLC using a C18 reversed phase column (Section 2.5).
The concentration of the NSAIDs was determined using calibration curves generated in the concentration range of 25-500 μM. Error bar represents±S.D. calculated from triplicate determinations. The stability of the nanoprodrugs under the experimental conditions in the absence of esterase was evaluated as follows. The purified nanoprodrugs were suspended in PBS (pH 7.4) and incubated for 12 h at room temperature. The amount of the intact prodrugs was determined using RP-HPLC as described above.

[4] = Oxidative destabilization of nanoprodrugs (turbidity at 500 nm after HOCl); conditions: nanoprodrug 250 μM, HOCl 25-1000 μM
Protocol: The nanoprodrugs were purified by centrifuging three times at 20,000×g for 10 min at 25° C. and resuspending each time in the same volume of deionized water. The purified nanoprodrugs were resuspended in phosphate buffered saline (PBS, pH 7.4) to give the final concentration of 250 μM NSAID derivatives. The concentration of HOCl in the diluted commercial sodium hypochlorite solution was determined spectrophotometrically (ε292=350 M^−1 cm^−1) (Morris, 1966). HOCl was added to the suspension of nanoprodrugs to give the final concentration of 25-1000 μM and the reduction in turbidity was measured immediately using ultraviolet/visible spectrometer (Bio-Rad SmartSpec™ 3000, Hercules, Calif., USA) at room temperature with a wavelength λ=500 nm.

[5] = system: U87-MG human glioma cell line; conditions: nanoprodrug 10 to 100 μM, 3 days
Protocol: The cells were grown and maintained in Minimum Essential Medium (MEM) (Invitrogen) containing antibiotics 100 U/mL penicillin (Invitrogen) and 100 μg/mL streptomycin (Invitrogen), and supplemented with 10% fetal bovine serum (FBS) (Invitrogen). Cells were kept at 37° C. in a humidified atmosphere including 5% CO2.
Nanoprodrugs were prepared from the monomeric derivative Ibu2TEG (25 mg) as described in Example 6 and dialyzed in phosphate buffered saline (PBS) over night. The human glioma cells (U87-MG) were seeded in a 25 cm^2 flask at 2.5×10^5 cells/5 mL and allowed to grow for 24 h. The medium was changed and the cells were treated with nanoprodrugs at final concentration ranging from 10 to 100 μM for the monomeric derivative Ibu2TEG. After a 3-day treatment, the medium was remove, cells were washed with PBS and 1 mL of 0.25% trypsin/EDTA (Gibco) was added to detach the cells. […] Control culture was treated with PBS.

[6] = system: human glioma cells (U87-MG); test: WST-1 cell viability assay, glioma cells; assay type: cell-based; conditions: free ibuprofen up to 600 μM, 72 h
Protocol: Growth inhibition was evaluated by the WST-1 (water-soluble tetrazolium salt) colorimetric assay (Boehringer Mannheim) according to the manufacturer's instructions. […] Cells were incubated at 37° C. for 1-4 h, and the absorbance was read by an ELISA plate reader at 450 nm. The cell viability was calculated as follows: Cell viability (%)=(Abss/Absc)×100, where Abss is the absorbance of cells treated with drugs and Absc is the absorbance of control cells incubated with cell culture medium only (See FIG. 9.).

[7] = system: human glioma cells (U87-MG); test: Cell death by propidium iodide uptake; assay type: cell-based; conditions: 200 μM of ibuprofen in DMSO, 72 h
Protocol: The human glioma cells (U87-MG) were seeded at 1×10^5 cells per well in 6-well plates, and allowed to grow for 24 h. The medium was changed and the cells were treated with 50 or 100 μM of nanoprodrug of Ibu2TEG or 200 μM of ibuprofen dissolved in DMSO for 72 h. Control cultures were treated with DMSO or cell culture medium only. After the end of treatment, glioma cells were incubated with 5 μM of propidium iodide (Sigma) for 1 h. Propidium iodide fluorescence was excited at 515-560 nm using an inverted microscope fitted with a standard rhodamine filter.

[8] = another NSAID nanosphere, Table 2C
[9] = hydrodynamic size of additional nanospheres, Table 2B
[10] = polydispersity index of additional nanospheres, Table 2B
[11] = nanoprodrugs of the derivative, Table 2A, n = 3, ±S.D., DLS 25° C.
[12] = polydispersity index of nanoprodrugs, Table 2A, n = 3, ±S.D.

Row | Compound | Size (nm) [1, 9] | P.I. [1, 10] | Size (nm) [1, 11] | P.I. [1, 12] | other results
1 | O=C(OCCOCCOCCOCCOC(=O)c1ccccc1Nc1cccc(C(F)(F)F)c1)c1ccccc1Nc1cccc(C(F)(F)F)c1 [(FA)2TEG, Tetraethylene glycol(flufenamic acid)2] |  |  |  |  | P.I. [1, 8]: 0.11; Size (nm) [1, 8]: 118 ± 32 nm
2 | COc1ccc2c(c1)c(CC(=O)OCCOCCOC(=O)CCCCC1CCSS1)c(C)n2C(=O)c1ccc(Cl)cc1 (stereo not drawn) [ALA-DEG-IND, (α-Lipoic acid)-diethylene glycol(indomethacin)] | 187 ± 54 nm | 0.13 |  |  | 
3 | CC(C)Cc1ccc(C(C)C(=O)OCCOCCOC(=O)CCCCC2CCSS2)cc1 (stereo not drawn) [ALA-DEG-Ibu, (α-Lipoic acid)-diethylene glycol(ibuprofen)] | 210 ± 53 nm | 0.09 |  |  | 
4 | COc1ccc2cc([C@H](C)C(=O)OCCOCCOC(=O)CCCCC3CCSS3)ccc2c1 (stereo partly drawn) [ALA-DEG-Npx, (α-Lipoic acid)-diethylene glycol(naproxen)] | 274 ± 56 nm | 0.05 |  |  | 
5 | O=C(CCCCC1CCSS1)OCCOCCOCCOCCOC(=O)c1ccccc1Nc1cccc(C(F)(F)F)c1 (stereo not drawn) [ALA-TEG-FA, (α-Lipoic acid)-tetraethylene glycol(flufenamic acid)] | 149 ± 36 nm | 0.08 |  |  | 
6 | CC(C)Cc1ccc(C(C)C(=O)OCCOCCOCCOCCOC(=O)CCCCC2CCSS2)cc1 (stereo not drawn) [ALA-TEG-Ibu] |  |  | 251 ± 13 nm | 0.10 ± 0.03 | Increase of the amount of hydrolyzed drugs from oxidized vs non-oxidized nanoprodrugs (esterase [2]): approximately two; Released parent drugs from the oxidized nanoprodrugs in comparison with non-oxidized controls (esterase [3]): 80%; Parent drugs hydrolyzed / released from the nanoprodrugs after 1 h incubation (Esterase (porcine liver)): approximately 90%; Concentration of the released drugs (Esterase (porcine liver)): 417 µM; Drug release (Esterase (porcine liver)): 83%
7 | COc1ccc2c(c1)c(CC(=O)OCCOCCOCCOCCOC(=O)CCCCC1CCSS1)c(C)n2C(=O)c1ccc(Cl)cc1 (stereo not drawn) [ALA-TEG-Ind] |  |  | 253 ± 25 nm | 0.09 ± 0.05 | Induction phase of oxidative destabilization [4]: longest induction phase
8 | COc1ccc2cc([C@H](C)C(=O)OCCOCCOCCOCCOC(=O)CCCCC3CCSS3)ccc2c1 (stereo partly drawn) [ALA-TEG-Npx] |  |  | 298 ± 6 nm | 0.05 ± 0.01 | Increase of the amount of hydrolyzed drugs from oxidized vs non-oxidized nanoprodrugs (esterase [2]): three; Induction phase of oxidative destabilization [4]: less apparent; Released parent drugs from the oxidized nanoprodrugs in comparison with non-oxidized controls (esterase [3]): 87%; Parent drugs hydrolyzed / released from the nanoprodrugs after 1 h incubation (Esterase (porcine liver)): approximately 90%; Concentration of the released drugs (Esterase (porcine liver)): 454 µM; Drug release (Esterase (porcine liver)): 91%
9 | CC(C)Cc1ccc(C(C)C(=O)OCCOCCOCCOCCOC(=O)C(C)c2ccc(CC(C)C)cc2)cc1 (stereo not drawn) [Ibu2TEG, Tetraethylene glycol(ibuprofen)2] |  |  | 186 ± 11 nm | 0.13 ± 0.02 | Cell number compared to the control culture [5]: significant decrease in cell number; Concentrations of the released drugs after 12 h incubation (Esterase (porcine liver)): comparable
10 | COc1ccc2c(c1)c(CC(=O)OCCOCCOCCOCCOC(=O)Cc1c(C)n(C(=O)c3ccc(Cl)cc3)c3ccc(OC)cc13)c(C)n2C(=O)c1ccc(Cl)cc1 [Ind2TEG] |  |  | 159 ± 10 nm | 0.06 ± 0.03 | 
11 | COc1ccc2cc(C(C)C(=O)OCCOCCOCCOCCOC(=O)C(C)c3ccc4cc(OC)ccc4c3)ccc2c1 (stereo not drawn) [Npx2TEG] |  |  | 259 ± 9 nm | 0.06 ± 0.02 | Concentrations of the released drugs after 12 h incubation (Esterase (porcine liver)): comparable
12 | CC(C)Cc1ccc(C(C)C(=O)O)cc1 (stereo not drawn) [ibuprofen] |  |  |  |  | Effect on cell viability [6]: did not show any significant effect; Propidium iodide incorporation (cell death) [7]: no significant propidium iodide incorporation
